System: SK-N-SH human neuroblastoma cells
Experiment: Serum Deprivation/JC-1 Mitochondrial Membrane Potential (MMP) Assay
Type: cell-based
Settings: for EC50: serum deprivation ~18 hours, JC-1 ratio normalized to peak value for 10 μM dimebolin, single curve fit to mean data of n=2-3; for Emax: read-out: JC-1 max %; for activation at 3 µM: single dose 3 μM, JC-1 ratio normalized to peak value for 10 μM dimebolin (n=2-4), read-out: JC-1 max % (@ 3 μM)
Text: The method also involves a high-throughput assay using serum-deprivation conditions involving neuronal cells to screen for compounds that increase or preserve mitochondrial membrane potential. Such compounds can be found to aid in rescuing cells from energy-depletion that occurs in several neurodegenerative states. Mitochondrial-mediated apoptosis occurs in response to a wide range of apoptotic stimuli including p^53, c-myc, DNA damage, prooxidants, chemotherapeutic agents, serum starvation and death receptor activation (Lin C—H., Lu Y-Z., Cheng, F-C., Chu L-F. and Hsuch C-M. Bax-regulated mitochondrial-mediated apoptosis is responsible for the in vitro ischemia induced neuronal cell death of Sprague Dawley rat. Neuroscience Lett. 2005, 387, 22-27).
Thus, this stress inducer, serum deprivation, combined with monitoring changes in the mitochondrial membrane potential in a 96-well format allows for the establishment of an efficient high-throughput screen (HTS) in order to evaluate the ability of compounds to increase mitochondrial membrane potential in the presence of stress and preserve health of the cell. Exemplary procedures for conducting such high-throughput assay are provided below.
SK-N-SH human neuroblastoma cells obtained from American Type Culture Collection (Rockville, Md.) were maintained in the log phase of growth in Minimal Essential Media (MEM), 10% heat inactivated fetal calf serum and 100 units/mL antibiotic-antimycotic (AA). Cells were cultured and maintained in a humidified incubator at 37° C. under 5% CO2 and 95% air. Cells were trypsinized (0.25%) and subcultured every 3 days and used from 15-18 passages. All cell culture supplies were obtained from Invitrogen (Carlsbad, Calif.).
SK-N-SH cells were plated 2-3 days in advance at a concentration of 50,000 cells/well onto collagen coated black-walled 96 well plates (Becton-Dickinson, Bedford, Mass.) in a total volume of […]. On day of experimental treatment, the media containing serum was aspirated from each well and rinsed once with MEM/1% AA without serum. The cells then were incubated overnight in 100 μL of MEM/1% AA (no serum) with and without dimebolin or novel chemical entities overnight for ˜18 hours. The following day, JC-1 dye (5,5′,6,6′-tetrachloro-1,1′,3,3′-tetraethylbenzimidazolcarbocyanide) was diluted 1:10 into MEM media according to the JC-1 Mitochondrial Membrane Potential Assay Kit: (Cayman Chemical Company, Ann Arbor, Mich.) and then 10 μL of the JC-1 dye solution was added to each well. The plates were centrifuged for 5 minutes at 400×g at room temperature followed by 40 minute incubation at 37° C. The plates were washed twice with 200 μL of provided Assay Buffer followed an addition of 100 μL of Assay Buffer to each well. The plates were read with an excitation and emission of 560 nm and 595 nM for red fluorescence and with an excitation and emission of 485 nm and 535 nM for green fluorescence to determine the final JC-1 value taking the red to green fluorescence ratio. This assay is based on change in mitochondrial membrane potential (MMP) using this lipophilic cationic dye, JC-1, by monitoring the changes in the ratio of red to green fluorescence as the MMP depolarizes. This change in MMP reflects the health of the cell with healthy, viable cells have a high JC-1 ratio and high MMP whereas apoptotic, unhealthy cells have a low JC-1 ratio or low MMP.
For the ability of compounds to reverse the stress due to serum deprivation and increase the JC-1 ratio, the percent maximal intensity in JC-1 ratio was normalized to that induced by the peak value for 10 μM dimebolin and plotted against the compound concentration to calculate EC50 values and to control for plate-to-plate variability. Concentration-response data were analyzed using GraphPad Prism (San Diego, Calif.); the EC50 values were derived from a single curve fit to the mean data of n=2-3, in duplicates. […]

[1] = Homo sapiens, SK-N-SH, percent maximal intensity in JC-1 ratio normalized to peak value for 10 μM dimebolin, serum deprivation
[2] = Homo sapiens, serum deprivation

| SMILES | EC50 (Homo sapiens, SK-N-SH, 18 h) [µM] | Emax [1] [%] | activation at 3 µM [2] [%] | other results |
| --- | --- | --- | --- | --- |
| Cc1ccccc1CN1Cc2ccccc2N2CCN(Cc3ccccc3)CC2C1 (stereo not shown) [Example 131, 3-benzyl-6-(2-methylbenzyl)-1,2,3,4,4a,5,6,7-octahydropyrazino[1,2-a][1,4]benzodiazepine] | 3.22 | 144 |  |  |
| CCOCC(=O)N1Cc2ccccc2N2CCN(Cc3ccccc3)CC2C1 (stereo not shown) [Example 113, 1-(3-benzyl-1,2,3,4,4a,5-hexahydropyrazino[1,2-a][1,4]benzodiazepin-6(7H)-yl)-2-ethoxyethanone] |  |  | 51 |  |
| CN1CCC2CN(Cc3ccccc3)CCN2c2ncccc21 (stereo not shown) [Example 55, 9-benzyl-5-methyl-5,6,7,7a,8,9,10,11-octahydropyrazino[1,2-d]pyrido[3,2-b][1,4]diazepine] | 9.95 | 99 |  |  |
| c1ccc(CN2CCN3c4ccccc4CN(Cc4cccnc4)CC3C2)cc1 (stereo not shown) [Example 28, 3-benzyl-6-(pyridin-3-ylmethyl)-1,2,3,4,4a,5,6,7-octahydropyrazino[1,2-a][1,4]benzodiazepine] | 9.59 | 88 |  |  |
| c1ccc(CN2CCN3c4ccccc4CN(Cc4cnc5ccccc5c4)CC3C2)cc1 (stereo not shown) [Example 33, 3-benzyl-6-(quinolin-3-ylmethyl)-1,2,3,4,4a,5,6,7-octahydropyrazino[1,2-a][1,4]benzodiazepine] | 1.3 | 192 |  |  |
| O=C(C1CCCO1)N1Cc2ccccc2N2CCN(Cc3ccccc3)CC2C1 (stereo not shown) [Example 118, (3-benzyl-1,2,3,4,4a,5-hexahydropyrazino[1,2-a][1,4]benzodiazepin-6(7H)-yl)(tetrahydrofuran-2-yl)methanone] |  |  | 84 |  |
| c1ccc(CN2CCN3c4ccccc4N(Cc4ccccc4)CCC3C2)cc1 (stereo not shown) [Example 45, 3,7-dibenzyl-1,2,3,4,4a,5,6,7-octahydropyrazino[1,2-a][1,5]benzodiazepine] | 5.93 | 238 |  |  |
| c1ccc(CN2CCN3c4ncccc4NCCC3C2)cc1 (stereo not shown) [Example 52, 9-benzyl-5,6,7,7a,8,9,10,11-octahydropyrazino[1,2-d]pyrido[3,2-b][1,4]diazepine] | 5.97 | 100 |  |  |
| Brc1ccc(CN2Cc3ccccc3N3CCN(Cc4ccccc4)CC3C2)cc1 (stereo not shown) [Example 3, 3-benzyl-6-(4-bromobenzyl)-1,2,3,4,4a,5,6,7-octahydropyrazino[1,2-a][1,4]benzodiazepine] |  |  |  | JC-1 max % (percent maximal intensity in JC-1 ratio normalized to peak value for 10 μM dimebolin, serum deprivation): 226%; EC50: 2.88 µM |
| Cc1ccsc1CN1Cc2ccccc2N2CCN(Cc3ccccc3)CC2C1 (stereo not shown) [Example 142, 3-benzyl-6-[(3-methyl-2-thienyl)methyl]-1,2,3,4,4a,5,6,7-octahydropyrazino[1,2-a][1,4]benzodiazepine] |  |  | 13 |  |
| Cn1cccc1C(=O)N1Cc2ccccc2N2CCN(Cc3ccccc3)CC2C1 (stereo not shown) [Example 105, (3-benzyl-1,2,3,4,4a,5-hexahydropyrazino[1,2-a][1,4]benzodiazepin-6(7H)-yl)(1-methyl-1H-pyrrol-2-yl)methanone] | 2.52 | 197 |  |  |
| Brc1cccc(CN2Cc3ccccc3N3CCN(Cc4ccccc4)CC3C2)c1 (stereo not shown) [Example 136, 3-benzyl-6-(3-bromobenzyl)-1,2,3,4,4a,5,6,7-octahydropyrazino[1,2-a][1,4]benzodiazepine] | 2.2 | 172 |  |  |
| O=C(NCC1CC1)N1Cc2ccccc2N2CCN(Cc3ccccc3)CC2C1 (stereo not shown) [Example 160, 3-benzyl-N-(cyclopropylmethyl)-1,2,3,4,4a,5-hexahydropyrazino[1,2-a][1,4]benzodiazepine-6(7H)-carboxamide] | 0.645 | 245 |  |  |
| O=C(Cc1cccnc1)N1Cc2ccccc2N2CCN(Cc3ccccc3)CC2C1 (stereo not shown) [Example 98, 1-(3-benzyl-1,2,3,4,4a,5-hexahydropyrazino[1,2-a][1,4]benzodiazepin-6(7H)-yl)-2-(pyridin-3-yl)ethanone] |  |  | 107 |  |
| CN1CCN2c3ccccc3CN(C(=O)c3ccccc3Cl)CC2C1 (stereo not shown) [Example 174, (2-chlorophenyl)(3-methyl-1,2,3,4,4a,5-hexahydropyrazino[1,2-a][1,4]benzodiazepin-6(7H)-yl)methanone] |  |  | 41 |  |

Reference: US9133206B2, “Benzodiazepine and pyridodiazepine derivatives” (AbbVie Inc., priority 2010, dated 2015)
